Tests used:
NCI-H322M = assay: Cytotoxicity against human NCI-H322M cells assessed as growth inhibition after 48 hrs by sulforhodamine B assay; type: functional
HCC 2998 [1] = assay: Cytotoxicity against human HCC2998 cells assessed as growth inhibition after 48 hrs by sulforhodamine B assay; type: functional; settings: HCC 2998, 48 h
HCT-15 = assay: Cytotoxicity against human HCT15 cells assessed as growth inhibition after 48 hrs by sulforhodamine B assay; type: functional; settings: HCT-15, 48 h
SW-620 = assay: Cytotoxicity against human SW620 cells assessed as growth inhibition after 48 hrs by sulforhodamine B assay; type: functional; settings: SW-620, 48 h
MDA-MB-435 = assay: Cytotoxicity against human MDA-MB-435 cells assessed as growth inhibition after 48 hrs by sulforhodamine B assay; type: functional; settings: MDA-MB-435, 48 h
MDA-MB-231 [2] = assay: Cytotoxicity against human MDA-MB-231 cells assessed as growth inhibition after 48 hrs by MTT assay; type: functional, cell-based; settings: MDA-MB-231, 48 h
M14 [3] = assay: Cytotoxicity against human M14 cells assessed as cell growth at 0.01 uM after 48 hrs by sulforhodamine B assay relative to control; type: functional; settings: M14, 48 h, read-out: Activity
COLO 205 = assay: Cytotoxicity against human COLO205 cells assessed as cell growth at 0.1 uM after 48 hrs by sulforhodamine B assay relative to control; type: functional; settings: COLO 205, 48 h, read-out: Activity
HCC 2998 [4] = assay: Cytotoxicity against human HCC2998 cells assessed as cell growth at 0.1 uM after 48 hrs by sulforhodamine B assay relative to control; type: functional; settings: HCC 2998, 48 h, read-out: Activity
SF-268 [5] = assay: Cytotoxicity against human SF268 cells assessed as cell growth at 0.1 uM after 48 hrs by sulforhodamine B assay relative to control; type: functional; settings: SF-268, 48 h, read-out: Activity
M14 [6] = assay: Cytotoxicity against human M14 cells assessed as cell growth at 0.1 uM after 48 hrs by sulforhodamine B assay relative to control; type: functional; settings: M14, 48 h, read-out: Activity
MDA-MB-231 [7] = assay: Cytotoxicity against human MDA-MB-231 cells assessed as cell growth at 0.1 uM after 48 hrs by sulforhodamine B assay relative to control; type: functional; settings: MDA-MB-231, 48 h, read-out: Activity
K562 [8] = assay: Cytotoxicity against human K562 cells assessed as cell growth at 1 uM after 48 hrs by sulforhodamine B assay relative to control; type: functional; settings: K562, 48 h, read-out: Activity
SR = assay: Cytotoxicity against human SR cells assessed as cell growth at 1 uM after 48 hrs by sulforhodamine B assay relative to control; type: functional; settings: read-out: Activity
NCI-H23 [9] = assay: Cytotoxicity against human NCI-H23 cells assessed as cell growth at 1 uM after 48 hrs by sulforhodamine B assay relative to control; type: functional; settings: NCI-H23, 48 h, read-out: Activity
SNB-19 = assay: Cytotoxicity against human SNB19 cells assessed as cell growth at 1 uM after 48 hrs by sulforhodamine B assay relative to control; type: functional; settings: SNB-19, 48 h, read-out: Activity
Malme-3M = assay: Cytotoxicity against human MALME-3M cells assessed as cell growth at 1 uM after 48 hrs by sulforhodamine B assay relative to control; type: functional; settings: read-out: Activity
SK-OV-3 = assay: Cytotoxicity against human SKOV3 cells assessed as cell growth at 1 uM after 48 hrs by sulforhodamine B assay relative to control; type: functional; settings: SK-OV-3, 48 h, read-out: Activity
HL-60(TB) = assay: Cytotoxicity against human HL-60(TB) cells assessed as cell growth at 10 uM after 48 hrs by sulforhodamine B assay relative to control; type: functional; settings: HL-60, 48 h, read-out: Activity
MOLT-4 [10] = assay: Cytotoxicity against human MOLT4 cells assessed as cell growth at 10 uM after 48 hrs by sulforhodamine B assay relative to control; type: functional; settings: MOLT-4, 48 h, read-out: Activity
A549 = assay: Cytotoxicity against human A549/ATCC cells assessed as cell growth at 10 uM after 48 hrs by sulforhodamine B assay relative to control; type: functional; settings: A549, 48 h, read-out: Activity
SF-268 [11] = assay: Cytotoxicity against human SF268 cells assessed as cell growth at 10 uM after 48 hrs by sulforhodamine B assay relative to control; type: functional; settings: SF-268, 48 h, read-out: Activity
SK-MEL-5 = assay: Cytotoxicity against human SK-MEL-5 cells assessed as cell growth at 10 uM after 48 hrs by sulforhodamine B assay relative to control; type: functional; settings: SK-MEL-5, 48 h, read-out: Activity
OVCAR-4 = assay: Cytotoxicity against human OVCAR4 cells assessed as cell growth at 10 uM after 48 hrs by sulforhodamine B assay relative to control; type: functional; settings: OVCAR-4, 48 h, read-out: Activity
RXF 393 = assay: Cytotoxicity against human RXF393 cells assessed as cell growth at 10 uM after 48 hrs by sulforhodamine B assay relative to control; type: functional; settings: RXF 393, 48 h, read-out: Activity
K562 [12] = assay: Cytotoxicity against human K562 cells assessed as cell growth at 100 uM after 48 hrs by sulforhodamine B assay relative to control; type: functional; settings: K562, 48 h, read-out: Activity
MOLT-4 [13] = assay: Cytotoxicity against human MOLT4 cells assessed as cell growth at 100 uM after 48 hrs by sulforhodamine B assay relative to control; type: functional; settings: MOLT-4, 48 h, read-out: Activity
NCI-H23 [14] = assay: Cytotoxicity against human NCI-H23 cells assessed as cell growth at 100 uM after 48 hrs by sulforhodamine B assay relative to control; type: functional; settings: NCI-H23, 48 h, read-out: Activity
NCI-H522 = assay: Cytotoxicity against human NCI-H522 cells assessed as cell growth at 100 uM after 48 hrs by sulforhodamine B assay relative to control; type: functional; settings: NCI-H522, 48 h, read-out: Activity
KM12 = assay: Cytotoxicity against human KM12 cells assessed as cell growth at 100 uM after 48 hrs by sulforhodamine B assay relative to control; type: functional; settings: KM12, 48 h, read-out: Activity
M14 [15] = assay: Cytotoxicity against human M14 cells assessed as cell growth at 100 uM after 48 hrs by sulforhodamine B assay relative to control; type: functional; settings: M14, 48 h, read-out: Activity
OVCAR-8 = assay: Cytotoxicity against human OVCAR8 cells assessed as cell growth at 100 uM after 48 hrs by sulforhodamine B assay relative to control; type: functional; settings: OVCAR-8, 48 h, read-out: Activity
786-0 = assay: Cytotoxicity against human 786-0 cells assessed as cell growth at 100 uM after 48 hrs by sulforhodamine B assay relative to control; type: functional; settings: 786-0, 48 h, read-out: Activity
TK-10 = assay: Cytotoxicity against human TK10 cells assessed as cell growth at 100 uM after 48 hrs by sulforhodamine B assay relative to control; type: functional; settings: TK-10, 48 h, read-out: Activity
T47D = assay: Cytotoxicity against human T47D cells assessed as cell growth at 100 uM after 48 hrs by sulforhodamine B assay relative to control; type: functional; settings: read-out: Activity

COc1cc(-c2cc(/C=C/C(=O)c3ccc4c(c3)OCO4)[nH]n2)cc(OC)c1OC
TGI (NCI-H322M): 19.1 µM | CC50 (NCI-H322M; read-out: LC50 (the source's name)): > 100 µM | LC50 (HCC 2998 [1]): 6.43 µM | TGI (HCC 2998 [1]): 3.54 µM | LC50 (HCT-15): > 100 µM | TGI (HCT-15): 7.19 µM | LC50 (lethal concentration, 50% net cell kill) (SW-620): > 100 µM | LC50 (MDA-MB-435): > 100 µM | IC50 (MDA-MB-231 [2]): 1.72 µM | growth at 0.01 µM (M14 [3]): 97% | growth at 0.1 µM (COLO 205): 101% | growth at 0.1 µM (HCC 2998 [4]): 102% | growth at 0.1 µM (SF-268 [5]): 90% | growth at 0.1 µM (M14 [6]): 97% | growth at 0.1 µM (MDA-MB-231 [7]): 103% | growth at 1 µM (K562 [8]): 102% | growth at 1 µM (SR): 32% | growth at 1 µM (NCI-H23 [9]): 97% | growth at 1 µM (SNB-19): 84% | growth at 1 µM (Malme-3M): 94% | growth at 1 µM (SK-OV-3): 102% | growth at 10 µM (HL-60(TB)): -21% | growth at 10 µM (MOLT-4 [10]): -4% | growth at 10 µM (A549): 26% | growth at 10 µM (SF-268 [11]): 5% | growth at 10 µM (SK-MEL-5): 26% | growth at 10 µM (OVCAR-4): 27% | growth at 10 µM (RXF 393): -95% | growth at 100 µM (K562 [12]): -10% | growth at 100 µM (MOLT-4 [13]): -10% | growth at 100 µM (NCI-H23 [14]): 20% | growth at 100 µM (NCI-H522): -97% | growth at 100 µM (KM12): 3% | growth at 100 µM (M14 [15]): 22% | growth at 100 µM (OVCAR-8): -33% | growth at 100 µM (786-0): -30% | growth at 100 µM (TK-10): -47% | growth at 100 µM (T47D): -19%

Reference: ChEMBL document CHEMBL4138123, “Design, synthesis and biological evaluation of novel pyrazolochalcones as potential modulators of PI3K/Akt/mTOR pathway and inducers of apoptosis in breast cancer cells” (Eur J Med Chem, 2017)
